Measured values published in patent publication US12193443B2, “Use of benzoxepin derivatives as a herbicide” (ECOLE POLYTECHNIQUE, priority 2019, dated 2025).

Test system: Arabidopsis thaliana seedlings
Assay: Test of the herbicidal activity on Arabidopsis thaliana seedlings grown hydroponically at the cotyledon stage
Type: in vivo
Design: key: A for Active in the case where the plant is killed, that is to say when the two cotyledons have lost all of their green coloration; “N” for Not active, in the case where no biological activity is observed
Conditions: for Activity after 24 h: 24 h after application; for Activity after 96 h: 96 h after application
Procedure: The compounds were tested on Arabidopsis thaliana seedlings grown hydroponically at the cotyledon stage. Sterile seeds are germinated in the light in a culture plate, in the presence of 200 μL of nutrient medium. After five days of culture (time 0 of the trial), the nutrient medium is replaced with an equivalent volume (200 μL) of this same medium containing the compound to be tested at different concentrations. The manifestation of herbicidal activity is indicated by A for Active in the case where the plant is killed, that is to say when the two cotyledons have lost all of their green coloration, 24 h and 96 h after application of the product. The absence of herbicidal activity is indicated by “N” for Not active, in the case where no biological activity is observed.

Row | SMILES | Activity after 24 h (10 μg/mL in nutrient medium) | Activity after 96 h (10 μg/mL in nutrient medium) | Activity after 24 h (50 μg/mL in nutrient medium) | Activity after 96 h (50 μg/mL in nutrient medium) | Activity after 24 h (100 μg/mL in nutrient medium) | Activity after 96 h (100 μg/mL in nutrient medium)
1 | CC1=CCc2c(O)cc(CCc3ccccc3)cc2OC1 [Compound A] | N | N | A | A | A | A
2 | CC1=CCOc2cc(CCc3ccccc3)c(C(=O)O)c(O)c2C1 [Compound C] | A | A | A | A | A | A
3 | COC(=O)c1c(CCc2ccccc2)cc2c(c1O)CC=C(C)CO2 [Compound D] | N | N | N | A | N | A
4 | Oc1cccc2c1CC=CCO2 [Compound E, reference compound] | N | N | N | N | N | N
5 | CC1=CCc2c(cc(CCc3ccccc3)c(C(=O)O)c2O)OC1 [Compound H] | A | A | A | A | A | A
